{"source": "ChEMBL document CHEMBL1141027", "about": "“HY251, a novel cell cycle inhibitor isolated from Aralia continentalis, induces G1 phase arrest via p53-dependent pathway in HeLa cells” (2009)", "key": {"HeLa [1]": {"test_system": "HeLa", "assay": "Cell cycle arrest in human HeLa cells assessed as accumulation at G1 phase at 100 uM treated 12 hrs after nocodazole challenge by flow cytometry", "assay_type": "functional, cell-based", "conditions": "TDE = time-dependent effect"}, "HeLa [2]": {"test_system": "HeLa", "assay": "Cell cycle arrest in human HeLa cells assessed as accumulation at G2/M phase at 50 ng/ml after 12 hrs by flow cytometry", "assay_type": "functional"}, "HeLa [3]": {"test_system": "HeLa", "assay": "Cell cycle arrest in human HeLa cells assessed as accumulation at G1 phase at 50 ng/ml after 12 hrs by flow cytometry", "assay_type": "functional"}, "HeLa [4]": {"test_system": "HeLa", "assay": "Cell cycle arrest in human HeLa cells assessed as accumulation at G1 phase at 100 uM treated 12 hrs after nocodazole challenge measured after 6 hrs by flow cytometry", "assay_type": "functional"}, "HeLa [5]": {"test_system": "HeLa", "assay": "Cell cycle arrest in human HeLa cells assessed as accumulation at G2/M phase at 100 uM treated 12 hrs after nocodazole challenge measured after 6 hrs by flow cytometry", "assay_type": "functional"}, "HeLa [6]": {"test_system": "HeLa", "assay": "Cell cycle arrest in human HeLa cells assessed as accumulation at G1 phase at 100 uM treated 12 hrs after nocodazole challenge measured after 12 hrs by flow cytometry", "assay_type": "functional"}, "HeLa [7]": {"test_system": "HeLa", "assay": "Cell cycle arrest in human HeLa cells assessed as accumulation at G2/M phase at 100 uM treated 12 hrs after nocodazole challenge measured after 12 hrs by flow cytometry", "assay_type": "functional"}, "HeLa [8]": {"test_system": "HeLa", "assay": "Cell cycle arrest in human HeLa cells assessed as accumulation at G1 phase at 100 uM treated 12 hrs after nocodazole challenge measured after 24 hrs by flow cytometry", "assay_type": "functional"}, "HeLa [9]": {"test_system": "HeLa", "assay": "Cell cycle arrest in human HeLa cells assessed as accumulation at G2/M phase at 100 uM treated 12 hrs after nocodazole challenge measured after 24 hrs by flow cytometry", "assay_type": "functional"}, "[10]": {"target": "Cyclin-dependent kinase 2 (Homo sapiens) (UniProt P24941)", "assay": "Inhibition of CDK2 in human HeLa cells by immunoprecipitation kinase assay", "assay_type": "cell-based"}, "[11]": {"target": "Cyclin-dependent kinase 4 (Homo sapiens) (UniProt P11802)", "sequence (P11802 whole entry)": "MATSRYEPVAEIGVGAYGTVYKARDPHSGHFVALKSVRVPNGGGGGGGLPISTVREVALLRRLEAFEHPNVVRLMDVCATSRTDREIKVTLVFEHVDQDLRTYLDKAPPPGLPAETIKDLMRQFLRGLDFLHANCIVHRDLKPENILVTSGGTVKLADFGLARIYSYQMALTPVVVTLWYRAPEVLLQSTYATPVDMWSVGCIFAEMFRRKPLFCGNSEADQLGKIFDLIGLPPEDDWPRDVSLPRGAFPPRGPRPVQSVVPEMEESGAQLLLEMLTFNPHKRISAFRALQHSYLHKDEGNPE", "assay": "Inhibition of CDK4 in human HeLa cells by immunoprecipitation kinase assay", "assay_type": "cell-based"}, "[12]": {"target": "Glycogen synthase kinase-3 beta (Homo sapiens) (UniProt P49841)", "sequence (P49841 whole entry, looked up)": "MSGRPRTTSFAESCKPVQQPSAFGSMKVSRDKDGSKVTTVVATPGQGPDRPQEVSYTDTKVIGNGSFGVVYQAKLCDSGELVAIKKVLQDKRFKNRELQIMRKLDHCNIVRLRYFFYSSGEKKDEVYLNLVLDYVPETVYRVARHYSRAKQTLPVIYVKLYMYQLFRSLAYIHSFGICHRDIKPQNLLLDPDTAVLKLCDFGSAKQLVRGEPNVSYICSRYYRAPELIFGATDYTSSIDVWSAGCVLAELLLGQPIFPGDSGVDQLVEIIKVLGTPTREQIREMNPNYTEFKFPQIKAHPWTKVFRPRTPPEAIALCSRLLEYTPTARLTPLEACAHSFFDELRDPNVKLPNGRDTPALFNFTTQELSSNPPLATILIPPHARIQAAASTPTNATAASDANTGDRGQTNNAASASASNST", "assay": "Inhibition of GSK3-beta in human HeLa cells by immunoprecipitation kinase assay", "assay_type": "cell-based"}, "HeLa [13]": {"test_system": "HeLa", "assay": "Decrease in cyclin D3 expression in human HeLa cells at 100 uM by Western blotting", "assay_type": "functional, cell-based", "conditions": "TDE = time-dependent effect"}, "HeLa [14]": {"test_system": "HeLa", "assay": "Increase in p21CIP1 level in human HeLa cells at 100 uM by Western blotting", "assay_type": "functional, cell-based", "conditions": "TDE = time-dependent effect"}, "HeLa [15]": {"test_system": "HeLa", "assay": "Increase in p27KIP1 level in human HeLa cells at 100 uM by Western blotting", "assay_type": "functional, cell-based", "conditions": "TDE = time-dependent effect"}, "HeLa [16]": {"test_system": "HeLa", "assay": "Increase in hypophosphorylated pRb level in human HeLa cells at 100 uM by Western blotting", "assay_type": "functional, cell-based", "conditions": "TDE = time-dependent effect"}, "[17]": {"target": "Cellular tumor antigen p53 (Homo sapiens) (UniProt P04637)", "sequence (P04637 whole entry, looked up)": "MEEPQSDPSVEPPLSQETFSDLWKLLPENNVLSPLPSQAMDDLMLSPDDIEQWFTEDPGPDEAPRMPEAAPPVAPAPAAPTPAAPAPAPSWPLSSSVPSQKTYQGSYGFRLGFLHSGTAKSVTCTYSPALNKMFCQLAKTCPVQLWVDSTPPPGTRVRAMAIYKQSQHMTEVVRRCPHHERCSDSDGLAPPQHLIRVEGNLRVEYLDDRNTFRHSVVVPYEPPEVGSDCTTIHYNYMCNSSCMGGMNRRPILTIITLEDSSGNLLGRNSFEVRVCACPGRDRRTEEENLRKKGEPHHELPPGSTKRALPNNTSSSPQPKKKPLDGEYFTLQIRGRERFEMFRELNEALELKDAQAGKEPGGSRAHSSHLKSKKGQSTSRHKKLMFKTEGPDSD", "assay": "Increase in p53-Ser15 phosphorylation in human HeLa cells at 100 uM by Western blotting", "assay_type": "cell-based"}, "HeLa [18]": {"test_system": "HeLa", "assay": "Increase in ataxia telangiectasia mutated gene expression in human HeLa cells after 12 hrs by RT-PCR relative to control", "assay_type": "functional"}, "HeLa [19]": {"test_system": "HeLa", "assay": "Increase in ataxia telangiectasia mutated gene expression in human HeLa cells after 24 hrs by RT-PCR relative to control", "assay_type": "functional"}}, "note": "Active and inactive are the calls of the source. The calls are words filed in the database; no cut-off is given here."}
{"smiles": "C=CC1CC2(O)CC3(O)CCC=CC3C2(O)C1(O)CCC", "note": "(centres undefined)", "values": [{"measurement": "Activity", "setting": "HeLa [1]", "value": "tde"}, {"measurement": "Activity", "setting": "HeLa [2]", "value": 68, "unit": "%"}, {"measurement": "Activity", "setting": "HeLa [3]", "value": 4, "unit": "%"}, {"measurement": "Activity", "setting": "HeLa [4]", "value": 35, "unit": "%"}, {"measurement": "Activity", "setting": "HeLa [5]", "value": 37, "unit": "%"}, {"measurement": "Activity", "setting": "HeLa [6]", "value": 48, "unit": "%"}, {"measurement": "Activity", "setting": "HeLa [7]", "value": 21, "unit": "%"}, {"measurement": "Activity", "setting": "HeLa [8]", "value": 52, "unit": "%"}, {"measurement": "Activity", "setting": "HeLa [9]", "value": 11, "unit": "%"}, {"measurement": "Activity", "setting": "[10]", "value": "inactive"}, {"measurement": "Activity", "setting": "[11]", "value": "inactive"}, {"measurement": "Activity", "setting": "[12]", "value": "inactive"}, {"measurement": "Activity", "setting": "HeLa [13]", "value": "tde"}, {"measurement": "Activity", "setting": "HeLa [14]", "value": "tde"}, {"measurement": "Activity", "setting": "HeLa [15]", "value": "tde"}, {"measurement": "Activity", "setting": "HeLa [16]", "value": "tde"}, {"measurement": "Activity", "setting": "[17]", "value": "Active"}, {"measurement": "fold change (FC)", "setting": "HeLa [18]", "value": 3.1}, {"measurement": "fold change (FC)", "setting": "HeLa [19]", "value": 3.8}]}
